Test results reported in US4771043A, “Steroidic aromatase inhibitors” (Farmitalia Carlo Erba, S.p.A., priority 1985, dated 1988).

Columns and labels:
rat ovarian aromatase = test: Inhibition of rat ovarian aromatase in vivo (PMSG-treated adult female rats, oral dosing, ovarian microsomes assayed 24 hours later); details: for % AROMATASE INHIBITION: rat ovarian microsomes 24 hours after dosing, versus vehicle treated group
Method: (§1) Aromatase inhibition by the compounds of the present invention was determined both in vitro (human placental aromatase), and in vivo (ovarian aromatase activity) in rats.
adult female rats were twice treated subcutaneously with 100 I.U. pregnant mares' serum gonadotropin (PMSG) at 4 days' interval, in order to increase ovarian aromatase activity, according to Brodie procedure [A. M. H. Brodie et al, Steroids 38, 693, 1981]. Three days after the second PMSG treatment, groups of 6 animals each were given orally the vehicle (0.5% methocel) or the inhibitor at the dose reported in the following table. Animals were killed 24 hours later, microsomes were isolated from ovaries and their aromatase activity determined using a method similar to that described above for the evaluation of the in vitro activity. The incubation were carried out for 30 minutes in 1 ml incubation volume containing 0.1 mg of microsomal proteins, 100 nM 4-[^3 H]androstenedione and 100 μM NADPH.
% inhibition of control aromatase activity was calculated.

[1] = women, R. C. Coombes et al., Lancet II, 1237, 1984; cited from earlier work
[2] = test system: human placental aromatase; test: Aromatase inhibition in vitro (human placental microsomes, 3H2O release from 4-[1β,2β-3H]androstene-3,17-dione); type: biochemical; details: comparison with e.g. 4-OH-A
Method: as §1
Aromatase inhibition in vitro was determined as follows: the enzyme system was isolated from the microsomal fraction of human placental tissue according to standard procedure. The assay of Thompson and Siiteri [E. A. Thompson and P. K. Siiteri, J. Biol. Chem. 249, 5364, 1974] which determines the rate of aromatization as measured by the liberation of ^3 H2 O from 4-[1β,2β-^3 H]androstene-3,17-dione was used. All incubations were carried out in a shaking water bath at 37° C. in air in 10 mM potassium phosphate buffer, pH 7.5, which contained 100 mM KCl, 1 mM EDTA and 1 mM dithiothreitol. The experiments were carried out in 1 ml incubation volume containing 50 nM 4-[^3 H]androstenedione, various concentrations of the inhibitors, 100 μM NADPH and 0.05 mg of microsomal proteins. After 15 minutes of incubation the reaction was stopped by the addition of chloroform (5 ml). After centrifugation at 1500×g for 5 minutes, aliquots (0.5 ml) were removed from the water phase for determination of ^3 H2 O formed. […] Aromatase inhibition in vivo was determined in rats by the following procedure: […]

| Structure (SMILES) | % AROMATASE INHIBITION (rat ovarian aromatase; 30 mg/kg p.o.) [%] | % AROMATASE INHIBITION (rat ovarian aromatase; 100 mg/kg p.o.) [%] | effectiveness in vivo by oral route (in words) (rat ovarian aromatase; 100 mg/kg) | conjugation after oral administration (in words) [1] | % AROMATASE INHIBITION (rat ovarian aromatase; 10 mg/kg p.o.) [%] | effectiveness in vivo by oral route (in words) (rat ovarian aromatase; 10 mg/kg) | in vitro aromatase inhibiting potency compared with reference compounds (in words) [2] |
| --- | --- | --- | --- | --- | --- | --- | --- |
| C[C@]12CCC(=O)C(O)=C1CC[C@@H]1[C@@H]2CC[C@]2(C)C(=O)CC[C@@H]12 [4-OH-A, 4-hydroxyandrosta-4-ene-3,17-dione, reference compound] | 7 | 21 | ineffective | extensively conjugated after oral administration |  |  |  |
| C[C@]12C=CC(=O)C=C1[C@@H](N)C[C@@H]1[C@@H]2CC[C@]2(C)C(=O)CC[C@@H]12 [FCE 24968, 6α-aminoandrosta-1,4-diene-3,17-dione] | 71 |  |  |  | 53 | very effective | less potent in vitro than, e.g., 4-OH-A |
| C[C@]12C=CC(=O)C=C1CC[C@@H]1[C@@H]2CC[C@]2(C)C(=O)CC[C@@H]12 [androsta-1,4-diene-3,17-dione, reference compound] | 37 |  |  |  |  |  |  |
| C[C@]12C=CC(=O)C=C1[C@@H](N=[N+]=[N-])C[C@@H]1[C@@H]2CC[C@]2(C)C(=O)CC[C@@H]12 [FCE 24403, 6α-azido androsta-1,4-diene-3,17-dione] | 89 |  |  |  | 81 | very effective | less potent in vitro than, e.g., 4-OH-A |
| C[C@]12C=CC(=O)C=C1CC[C@@H]1[C@@H]2CC[C@]2(C)OC(=O)CC[C@@H]12 [testolactone, D-homo-17a-oxaandrosta-1,4-diene-3,17-dione, reference compound] | 2 |  |  |  |  |  |  |
